# How the values were obtained:
# Assay in all cases: Protein kinase inhibition assay
# Type in all cases: biochemical
# [1] = target: DDR2(h) (Homo sapiens, UniProt Q16832); details: read-out: percent residual activity of DDR2(h)
# Description: (§1) Certain compounds were tested for activity in protein kinase inhibition assays. All substrates were dissolved and diluted to working stocks in de-ionized water, apart from histone H1 (10× working stock in 20 mM MOPS pH 7.0), PDKtide (10× working stock in 50 mM Tris pH 7.0) ATF2 (which is typically stored at a 20× working stock in 50 mM Tris pH 7.5, 150 mM NaCl, 0.1 mM EGTA, 0.03% Brij-35, 50% glycerol, 1 mM benzamidine, 0.2 mM PMSF and 0.1% R-mercaptoethanol), KKLNRTLSFAEPG (SEQ ID NO:203) and RRRLSFAEPG (SEQ ID NO:204) (50 mM HEPES pH 7.4) and GGEEEEYFELVKKKK (SEQ ID NO:205) (20 mM MOPS pH 7.0). All kinases were pre-diluted to a 10× working concentration prior to addition into the assay. The composition of the dilution buffer for each kinase is detailed below.
# In a final reaction volume of 25 μl, DDR2 (h) (5-10 mU) is incubated with 8 mM MOPS pH 7.0, 0.2 mM EDTA, 250 μM KKSRGDYMTMQIG (SEQ ID NO:210), 10 mM MnCl2, 10 mM MgAcetate and [y-33P-ATP] (specific activity approx. 500 cpm/pmol, concentration as required). The reaction is initiated by the addition of the MgATP mix. After incubation for 40 minutes at room temperature, the reaction is stopped by the addition of 5 μl of a 3% phosphoric acid solution. […]
# [2] = target: TAK1(h) (Homo sapiens, UniProt O43318); details: read-out: percent residual activity of TAK1(h)
# Description: as §1
# (§2) In a final reaction volume of 25 μl, TAK1 (h) (5-10 mU) is incubated with 8 mM MOPS pH 7.0, 0.2 mM EDTA, 2 mg/ml casein, 10 mM MgAcetate and [gamma-33P-ATP] (specific activity approx. 500 cpm/pmol, concentration as required). The reaction is initiated by the addition of the MgATP mix. After incubation for 40 minutes at room temperature, the reaction is stopped by the addition of 5 μl of a 3% phosphoric acid solution. 10 μl of the reaction is then spotted onto a P30 filtermat and washed three times for 5 minutes in 75 mM phosphoric acid and once in methanol prior to drying and scintillation counting.
# [3] = target: PKD2(h) (Homo sapiens, UniProt Q9BZL6); details: read-out: percent residual activity of PKD2(h)
# Description: as §1
# as §2, with “PKD2” for “TAK1”, “20” for “8”, “HEPES” for “MOPS”, “7.4, 0.03% Triton X-100, 30 μM KKLNRTLSVA (SEQ ID NO:212)” for “7.0, 0.2 mM EDTA, 2 mg/ml casein,”
# [4] = target: MSSK1(h) (Homo sapiens, UniProt Q9UPE1); details: read-out: percent residual activity of MSSK1(h)
# Description: as §1
# [5] = target: CLK3(h) (Homo sapiens, UniProt P49761); details: read-out: percent residual activity of CLK3(h)
# Description: as §1
# [6] = target: LIMK1(h) (Homo sapiens, UniProt P53667); details: read-out: percent residual activity of LIMK1(h)
# Description: as §1
# [7] = target: DCAMKL2(h) (Homo sapiens, UniProt Q8N568); details: read-out: percent residual activity of DCAMKL2(h)
# Description: as §1
# [8] = target: LKB1(h) (Homo sapiens, UniProt Q15831); details: read-out: percent residual activity of LKB1(h)
# Description: as §1
# [9] = target: DMPK(h) (Homo sapiens, UniProt Q09013); details: read-out: percent residual activity of DMPK(h)
# Description: as §1
# [10] = target: DAPK2(h) (Homo sapiens, UniProt Q9UIK4); details: read-out: percent residual activity of DAPK2(h)
# Description: as §1
# [11] = target: CaMKI(h) (Homo sapiens, UniProt Q14012); details: read-out: percent residual activity of CaMKI(h)
# Description: as §1
# [12] = target: IRAK1(h) (Homo sapiens, UniProt P51617); details: read-out: percent residual activity of IRAK1(h)
# Description: as §1
# [13] = target: BrSK1(h) (Homo sapiens, UniProt Q8TDC3); details: read-out: percent residual activity of BrSK1(h)
# Description: as §1
# [14] = target: PhKγ2(h) (Homo sapiens, UniProt P15735); details: read-out: percent residual activity of PhKγ2(h)
# Description: as §1
# [15] = target: PrKX(h) (Homo sapiens, UniProt P51817); details: read-out: percent residual activity of PrKX(h)
# Description: as §1
# [16] = target: GRK5(h) (Homo sapiens, UniProt P34947); details: read-out: percent residual activity of GRK5(h)
# Description: as §1
# [17] = target: cKit(D816H)(h) (Homo sapiens, UniProt P10721, D816H); details: read-out: percent residual activity of cKit(D816H)(h)
# Description: as §1
# [18] = target: CK1γ1(h) (Homo sapiens, UniProt Q9HCP0); details: read-out: percent residual activity of CK1γ1(h)
# Description: as §1
# Sequence of CK1γ1(h) (Q9HCP0 whole entry): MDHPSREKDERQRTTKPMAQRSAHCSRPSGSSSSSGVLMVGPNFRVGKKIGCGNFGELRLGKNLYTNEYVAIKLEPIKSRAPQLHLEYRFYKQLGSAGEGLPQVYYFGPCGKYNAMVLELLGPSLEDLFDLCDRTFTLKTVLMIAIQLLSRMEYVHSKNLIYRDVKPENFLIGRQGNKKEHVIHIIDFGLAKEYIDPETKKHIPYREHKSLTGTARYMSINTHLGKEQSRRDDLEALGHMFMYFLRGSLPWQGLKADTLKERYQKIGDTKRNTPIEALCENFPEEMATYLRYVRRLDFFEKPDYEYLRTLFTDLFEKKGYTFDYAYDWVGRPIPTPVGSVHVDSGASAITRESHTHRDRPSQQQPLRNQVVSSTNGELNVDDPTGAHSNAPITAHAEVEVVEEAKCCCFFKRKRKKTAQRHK
# Sequence of BrSK1(h) (Q8TDC3 whole entry): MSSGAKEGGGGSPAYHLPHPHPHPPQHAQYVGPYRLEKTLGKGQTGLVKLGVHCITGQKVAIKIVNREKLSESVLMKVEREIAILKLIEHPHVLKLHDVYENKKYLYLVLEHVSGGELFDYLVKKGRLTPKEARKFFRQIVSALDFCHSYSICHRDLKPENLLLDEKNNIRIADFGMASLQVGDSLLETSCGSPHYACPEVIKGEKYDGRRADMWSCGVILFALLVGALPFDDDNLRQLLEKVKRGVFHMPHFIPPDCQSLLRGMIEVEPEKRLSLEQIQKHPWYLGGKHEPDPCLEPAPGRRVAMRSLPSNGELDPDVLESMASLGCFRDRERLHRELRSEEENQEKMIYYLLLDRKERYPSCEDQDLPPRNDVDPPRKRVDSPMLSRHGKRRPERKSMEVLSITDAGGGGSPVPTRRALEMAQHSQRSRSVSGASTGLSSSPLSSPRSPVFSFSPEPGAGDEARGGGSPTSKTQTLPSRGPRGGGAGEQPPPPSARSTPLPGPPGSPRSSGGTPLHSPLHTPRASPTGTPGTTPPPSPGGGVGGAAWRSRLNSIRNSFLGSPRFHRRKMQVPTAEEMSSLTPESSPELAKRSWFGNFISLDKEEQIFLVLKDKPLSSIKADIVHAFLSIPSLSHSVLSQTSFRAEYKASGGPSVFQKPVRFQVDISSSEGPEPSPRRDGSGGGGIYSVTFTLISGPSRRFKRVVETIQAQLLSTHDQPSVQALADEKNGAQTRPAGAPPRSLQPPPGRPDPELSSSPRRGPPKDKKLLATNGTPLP
# Sequence of LIMK1(h) (P53667 whole entry): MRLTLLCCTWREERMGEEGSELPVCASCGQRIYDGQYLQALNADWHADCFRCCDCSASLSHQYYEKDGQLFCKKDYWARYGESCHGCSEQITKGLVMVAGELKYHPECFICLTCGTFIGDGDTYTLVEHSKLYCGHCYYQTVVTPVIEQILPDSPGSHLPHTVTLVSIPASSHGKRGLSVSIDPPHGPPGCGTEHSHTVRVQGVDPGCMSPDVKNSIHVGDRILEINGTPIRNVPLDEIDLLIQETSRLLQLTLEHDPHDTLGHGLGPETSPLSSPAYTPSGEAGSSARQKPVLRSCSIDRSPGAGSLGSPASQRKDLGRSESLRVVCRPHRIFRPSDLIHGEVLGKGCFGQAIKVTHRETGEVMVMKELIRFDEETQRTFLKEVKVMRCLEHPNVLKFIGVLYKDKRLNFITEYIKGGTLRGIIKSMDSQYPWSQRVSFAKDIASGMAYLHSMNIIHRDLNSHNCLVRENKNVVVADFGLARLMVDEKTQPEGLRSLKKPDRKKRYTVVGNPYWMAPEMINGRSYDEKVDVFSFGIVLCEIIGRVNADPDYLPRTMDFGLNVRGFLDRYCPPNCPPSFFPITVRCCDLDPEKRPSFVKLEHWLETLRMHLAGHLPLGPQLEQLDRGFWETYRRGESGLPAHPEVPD
# Sequence of CLK3(h) (P49761 whole entry): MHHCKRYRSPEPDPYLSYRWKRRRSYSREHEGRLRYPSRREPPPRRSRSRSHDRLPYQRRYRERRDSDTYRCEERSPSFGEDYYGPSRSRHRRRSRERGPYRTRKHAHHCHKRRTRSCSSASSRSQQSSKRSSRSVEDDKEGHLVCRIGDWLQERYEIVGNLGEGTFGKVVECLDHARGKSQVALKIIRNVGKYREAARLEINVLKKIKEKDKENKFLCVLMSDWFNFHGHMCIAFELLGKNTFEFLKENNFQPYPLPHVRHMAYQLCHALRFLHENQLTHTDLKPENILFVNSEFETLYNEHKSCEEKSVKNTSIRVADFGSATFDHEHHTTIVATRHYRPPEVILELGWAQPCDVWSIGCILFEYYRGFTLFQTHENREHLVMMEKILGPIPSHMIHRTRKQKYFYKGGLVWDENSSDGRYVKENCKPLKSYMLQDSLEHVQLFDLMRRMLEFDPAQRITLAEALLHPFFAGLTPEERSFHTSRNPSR
# Sequence of LKB1(h) (Q15831 whole entry): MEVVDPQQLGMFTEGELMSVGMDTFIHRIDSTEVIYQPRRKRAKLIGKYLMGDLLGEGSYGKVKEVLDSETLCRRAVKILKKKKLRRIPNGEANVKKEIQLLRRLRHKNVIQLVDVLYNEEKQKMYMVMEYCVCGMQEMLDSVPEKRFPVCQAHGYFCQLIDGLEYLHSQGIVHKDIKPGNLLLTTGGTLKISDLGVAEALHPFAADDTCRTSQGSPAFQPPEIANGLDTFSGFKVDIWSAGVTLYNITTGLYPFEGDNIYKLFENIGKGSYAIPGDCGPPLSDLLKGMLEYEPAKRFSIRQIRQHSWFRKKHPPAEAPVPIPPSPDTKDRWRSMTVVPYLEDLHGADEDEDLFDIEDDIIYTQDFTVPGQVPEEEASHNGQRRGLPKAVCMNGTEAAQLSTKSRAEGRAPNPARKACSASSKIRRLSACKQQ
# Sequence of LKB1(h) (Q7RTN6 whole entry partner): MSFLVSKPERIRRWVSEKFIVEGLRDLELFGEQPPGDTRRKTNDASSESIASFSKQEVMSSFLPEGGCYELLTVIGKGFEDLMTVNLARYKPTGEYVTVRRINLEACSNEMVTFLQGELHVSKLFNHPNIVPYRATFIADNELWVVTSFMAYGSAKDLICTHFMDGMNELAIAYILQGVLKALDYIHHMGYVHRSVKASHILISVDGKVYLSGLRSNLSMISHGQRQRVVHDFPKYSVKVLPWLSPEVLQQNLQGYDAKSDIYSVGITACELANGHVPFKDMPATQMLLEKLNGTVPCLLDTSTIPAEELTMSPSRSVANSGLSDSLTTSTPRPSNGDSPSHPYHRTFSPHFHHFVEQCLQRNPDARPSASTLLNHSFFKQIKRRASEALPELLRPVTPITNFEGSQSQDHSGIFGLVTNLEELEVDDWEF
# Sequence of LKB1(h) (Q9Y376 whole entry partner): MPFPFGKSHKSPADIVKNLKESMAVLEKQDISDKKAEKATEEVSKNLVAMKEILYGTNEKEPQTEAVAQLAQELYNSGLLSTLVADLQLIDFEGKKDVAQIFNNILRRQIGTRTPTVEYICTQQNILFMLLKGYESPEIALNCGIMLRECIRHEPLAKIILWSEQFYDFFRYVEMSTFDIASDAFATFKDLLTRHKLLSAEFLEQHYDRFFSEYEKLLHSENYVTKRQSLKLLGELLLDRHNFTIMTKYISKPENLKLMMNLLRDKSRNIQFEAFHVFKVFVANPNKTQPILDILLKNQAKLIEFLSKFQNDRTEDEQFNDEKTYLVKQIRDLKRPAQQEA
# Sequence of DMPK(h) (Q09013 whole entry): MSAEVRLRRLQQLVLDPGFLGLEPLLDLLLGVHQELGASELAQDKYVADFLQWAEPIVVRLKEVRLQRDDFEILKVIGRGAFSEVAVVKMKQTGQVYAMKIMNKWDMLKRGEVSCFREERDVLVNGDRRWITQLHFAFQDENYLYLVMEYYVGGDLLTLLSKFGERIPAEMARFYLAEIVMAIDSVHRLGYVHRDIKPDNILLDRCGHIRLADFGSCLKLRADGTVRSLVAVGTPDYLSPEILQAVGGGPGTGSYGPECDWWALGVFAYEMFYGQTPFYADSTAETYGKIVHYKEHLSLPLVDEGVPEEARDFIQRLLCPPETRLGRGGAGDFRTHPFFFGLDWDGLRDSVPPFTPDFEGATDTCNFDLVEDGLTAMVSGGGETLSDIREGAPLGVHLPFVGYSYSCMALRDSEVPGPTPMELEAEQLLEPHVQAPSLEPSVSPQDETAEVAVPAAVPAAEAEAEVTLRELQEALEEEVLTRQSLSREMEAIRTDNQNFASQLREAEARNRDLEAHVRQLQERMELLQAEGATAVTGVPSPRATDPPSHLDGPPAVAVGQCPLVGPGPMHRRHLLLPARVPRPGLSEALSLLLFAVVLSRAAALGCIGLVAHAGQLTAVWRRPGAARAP
# Sequence of DDR2(h) (Q16832 22-855): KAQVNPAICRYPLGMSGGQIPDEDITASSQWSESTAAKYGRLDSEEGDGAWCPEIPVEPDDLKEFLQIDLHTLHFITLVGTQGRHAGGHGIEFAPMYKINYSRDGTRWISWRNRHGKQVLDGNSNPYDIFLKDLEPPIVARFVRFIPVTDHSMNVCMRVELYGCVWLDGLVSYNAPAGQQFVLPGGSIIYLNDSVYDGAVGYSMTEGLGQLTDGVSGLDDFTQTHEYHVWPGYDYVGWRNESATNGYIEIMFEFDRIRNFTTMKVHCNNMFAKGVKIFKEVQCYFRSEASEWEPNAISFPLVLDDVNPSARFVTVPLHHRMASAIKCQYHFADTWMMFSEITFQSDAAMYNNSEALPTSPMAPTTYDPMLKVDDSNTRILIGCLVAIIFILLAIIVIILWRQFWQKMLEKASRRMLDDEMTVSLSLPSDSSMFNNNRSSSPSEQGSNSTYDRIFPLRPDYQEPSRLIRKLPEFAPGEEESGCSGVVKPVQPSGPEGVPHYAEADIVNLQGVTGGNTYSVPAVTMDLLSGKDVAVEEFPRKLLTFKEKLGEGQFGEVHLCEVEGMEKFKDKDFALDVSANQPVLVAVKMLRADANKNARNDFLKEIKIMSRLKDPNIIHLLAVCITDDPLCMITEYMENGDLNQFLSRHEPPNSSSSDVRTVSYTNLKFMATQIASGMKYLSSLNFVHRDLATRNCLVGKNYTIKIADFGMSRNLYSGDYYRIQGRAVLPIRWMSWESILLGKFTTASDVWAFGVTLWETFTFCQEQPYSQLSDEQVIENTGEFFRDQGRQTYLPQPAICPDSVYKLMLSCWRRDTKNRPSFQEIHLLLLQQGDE
remaining activity at 2.5 µM [1] [%],remaining activity at 2.5 µM [2] [%],remaining activity at 2.5 µM [3] [%],remaining activity at 2.5 µM [4] [%],remaining activity at 2.5 µM [5] [%],remaining activity at 2.5 µM [6] [%],remaining activity at 2.5 µM [7] [%],remaining activity at 2.5 µM [8] [%],remaining activity at 2.5 µM [9] [%],remaining activity at 2.5 µM [10] [%],remaining activity at 2.5 µM [11] [%],remaining activity at 2.5 µM [12] [%],remaining activity at 2.5 µM [13] [%],remaining activity at 2.5 µM [14] [%],remaining activity at 2.5 µM [15] [%],remaining activity at 2.5 µM [16] [%],remaining activity at 2.5 µM [17] [%],remaining activity at 2.5 µM [18] [%],SMILES
77,98,79,41,84,97,48,98,92,109,95,86,99,46,75,95,73,90,CN1CCCC1CCNC(=O)c1cn2c3c(c(N4CCC(c5cnccn5)C4)c(F)cc3c1=O)Oc1cc3ccccc3cc1-2 (stereo not drawn) [Compound A-1]
95,95,98,107,96,100,111,101,105,102,106,102,107,118,96,99,92,100,CC(=O)N1CCN(c2ccc3c(=O)c(C(=O)NCCN4CCCC4)c4n(C)c5ccccc5n4c3n2)CC1 [Compound B-1]
